Consider 19 compounds from patent US4794188A, “Certain unsymmetrical quinolinyl ethers having anti-inflammatory and anti-allergic activity” (USV Pharmaceutical Corporation, priority 1985, dated 1988).

This assay deals with T1, 5-LOX (Homo sapiens, UniProt P09917).
T1 sequence (P09917 1-674): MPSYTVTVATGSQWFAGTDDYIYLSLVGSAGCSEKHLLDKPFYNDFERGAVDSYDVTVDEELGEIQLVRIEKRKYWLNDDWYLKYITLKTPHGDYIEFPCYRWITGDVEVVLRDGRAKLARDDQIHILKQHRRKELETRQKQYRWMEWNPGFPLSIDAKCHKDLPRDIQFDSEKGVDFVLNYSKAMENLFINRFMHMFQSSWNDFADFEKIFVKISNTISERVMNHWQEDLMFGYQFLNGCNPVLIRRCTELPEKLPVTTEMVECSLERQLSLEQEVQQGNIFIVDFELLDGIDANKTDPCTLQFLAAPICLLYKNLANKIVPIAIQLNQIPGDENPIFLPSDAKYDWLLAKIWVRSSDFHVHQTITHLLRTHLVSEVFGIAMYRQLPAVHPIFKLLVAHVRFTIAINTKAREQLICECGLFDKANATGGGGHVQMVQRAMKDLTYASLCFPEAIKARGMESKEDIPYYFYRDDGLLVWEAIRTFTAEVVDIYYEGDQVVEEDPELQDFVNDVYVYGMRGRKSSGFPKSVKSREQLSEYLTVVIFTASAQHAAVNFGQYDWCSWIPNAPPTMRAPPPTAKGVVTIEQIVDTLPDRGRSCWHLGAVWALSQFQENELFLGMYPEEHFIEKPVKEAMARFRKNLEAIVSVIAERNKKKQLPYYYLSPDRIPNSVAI
The assay can be described thus: 5-LOX inhibition (5-LOX I50, Table I). It counts as biochemical.

As for `OC(CCCCCOc1cccc(Cl)c1)c1cccc(OCc2ccc3ccccc3n2)c1` (stereo not shown), the IC50 turned out to be 600 nM.
The result for `CCCCCC(=O)c1cccc(OCc2ccc3ccccc3n2)c1` reads 150 nM; that for `CCCCCC(O)c1cccc(OCc2cccnc2)c1` (stereo not shown), 3000 nM.
The result for `CCCCCC(O)c1cccc(OCc2cccc(C(=O)O)n2)c1` (stereo not shown) reads 1900 nM; that for `CCCCCC(O)c1ccc(OCc2ccc3ccccc3n2)cc1` (stereo not shown), 350 nM.
On to `CCCCCC(O)c1ccc(Oc2ccc3ccccc3n2)cc1` (stereo not shown), for which the IC50 came out at 350 nM.
The compound `CCCCC=Cc1cccc(OCc2ccc3ccccc3n2)c1` [3-(CHCHC4 H9), 2-[3-(1-Hexenyl)phenoxymethyl]quinoline] had an IC50 of 2400 nM.
The same measure for `CCCCCC(C)(O)c1cccc(OCc2ccc3ccccc3n2)c1` (stereo not shown): 100 nM.
The result for `CC(=O)CC(O)c1cccc(OCc2ccc3ccccc3n2)c1` (stereo not shown) reads 180 nM; that for `CCCCCC(O)c1cccc(OCc2ccncc2)c1` (stereo not shown), 3000 nM.
The result for `OC(CCCCCOc1ccccc1)c1cccc(OCc2ccc3ccccc3n2)c1` (stereo not shown) reads 600 nM; that for `CCCCCC(NC)c1cccc(OCc2ccccn2)c1` (stereo not shown), 2200 nM.
Take `CC(O)(CCCCCOc1ccccc1)c1cccc(OCc2ccc3ccccc3n2)c1` (stereo not shown): inhibition was half-maximal at 800 nM (IC50).
The compound `CCCCC(C)C(O)c1cccc(OCc2ccc3ccccc3n2)c1` (stereo not shown) gave a concentration for half-maximal inhibition (IC50) of 200 nM.
The result for `CCCCC(C)(C)C(O)c1cccc(OCc2ccc3ccccc3n2)c1` (stereo not shown) reads 270 nM; that for `CCCCC(C)(C)C(C)(O)c1cccc(OCc2ccc3ccccc3n2)c1` (stereo not shown), 270 nM; that for `CCCCCC(O)c1cccc(OCc2ccccn2)c1` (stereo not shown), 500 nM.
The same measure for `CCCCCC(O)c1cccc(OCc2cccc(C#N)n2)c1` (stereo not shown): 30000 nM; for `CCCCCC(C)(O)c1cccc(OCc2ccccn2)c1` (stereo not shown): 300 nM.
